Assay results published in patent US10781203B2, “Nontoxic compounds for the treatment and prevention of herpesvirus infections” (The Penn State Research Foundation, priority 2016, dated 2020).

What was measured:
cells = assay: Cell viability after extended treatment (trypan blue, bright field); assay type: cell-based; settings: after 96 hours of treatment
Excerpt: FIG. 3A is a growth curve analysis of HCMV (MOI=3) in untreated (WT), vehicle treated (DMSO) or Retro94-treated cells. Samples were harvested at 24, 48, 72, 96, 120 and 144 hpi. […] Nuclei labeled with DAPI (blue). Scale bars: 10 μm. FIG. 3C is a growth curve analysis of HCMV (MOI=0.05) in DMSO control (DMSO) or Retro94-treated cells. Samples were harvested at 3, 6, 9, 12 and 15 dpi. Asterisks indicate change of media with fresh Retro94. […] Bright field images of cell monolayers at 4 days post treatment are shown below graph. Brefeldin A was included as a positive control for cell death. Values in FIGS. 3A and 3C are from one representative experiment.
Normal human dermal fibroblasts, HDFs (Cell Applications Inc. 106-05N), and normal human lung fibroblasts, MRC-5 cells (ATCC CCL-171) were maintained in Dulbecco's modified Eagle's medium (DMEM) (Lonza). Human retinal pigmented epithelial cells (ARPE-19), maintained in DMEM/Ham's F12 (1:1 mix) (Lonza), human embryonic lung fibroblasts (HEL) and mouse embryonic fibroblasts (NIH 3T3), maintained in DMEM (Lonza) were obtained (Spector D J, Yetming K. Virology. 2010; 407(2):171-7; Spector D J. Virology. 2015, 476:345-54). All media was supplemented with 10% fetal bovine serum, 100 U/ml penicillin and 100 µg/ml streptomycin, and 2 mM GlutaMAX (Gibco). Cells were maintained at 37° C. with 5% CO2. […]

HCMV = HCMV single-step growth curve / virus titer analysis (MOI=3); assay type: cell-based, Human cytomegalovirus (HCMV); settings: Human betaherpesvirus 5; for EC50: MOI=3, harvested at 96 hpi (FIG. 9)
Experimental: Infections were done at an MOI of 0.05 for multi-step growth curves and MOI 3 for single-step growth curves. Infections were done on NHDFs unless otherwise noted. Virus was incubated with cells for 2 hours before addition of fresh media. For growth curve analyses, virus was harvested at the indicated time-points for each experiment by scraping the cells into the medium, sonicating 10 times with 1 second pulses, vortexing for 15 seconds, and centrifuging at 13,000 rpm for 10 min. Supernatants were collected, aliquoted and flash-frozen in liquid nitrogen before storage at −80° C.
(§1) For MCMV growth curve analysis, samples were titrated on NIH 3T3 cells and titers were calculated using the 50% tissue culture infective dose method. Both HCMV virus stocks and samples for growth curves were titrated by serial dilutions on MRC5 cells and quantified by the immunological detection of immediate-early proteins as previously described (Britt W J. Human cytomegalovirus: propagation, quantification, and storage. Curr Protoc Microbiol. 2010; Chapter 14: Unit 14E.3). The numbers of stained nuclei were acquired on a Nikon Eclipse Ti Inverted microscope and fluorescent nuclei were quantified using the NIS Elements Software. Images of viral foci from infection of ARPE19 cells were also acquired on Eclipse Ti Inverted microscope. The number and size of foci were quantified using NIS Elements software.
^1H NMR spectra were recorded on a 500 MHz Bruker spectrometer (Billerica, Mass.) using tetramethylsilane (TMS) as the internal reference. The following abbreviations were used to designate chemical shift multiplicities: s=singlet, d=doublet, dd=double doublet, t=triplet, dt=doublet of triplet, m=multiplet. Mass Spec analysis was performed on 4000 Q trap hybrid triple quadrupole/linear ion trap instrument (Applied Biosystems/MDS Sciex) at the proteomic facility at Penn State Hershey Cancer Institute, Hershey, Pa. Thin-layer chromatography (TLC) was on aluminum-supported, precoated silica gel plates (EM Industries, Gibbstown, N.J.). 5-(2-methyl-3-thiazol-4-yl)-2-thiophencarboxaldehyde was purchased from MAYBRIDGE-Thermo Fisher (Cornwall, UK). All other starting materials were obtained from Aldrich Chemical Co. (Milwaukee, Wis.) and used without further purification. Retro94 was added to cells at 2 hpi at a concentration of 10 μM, unless otherwise indicated.

[1] = Tolerability in mice (adverse effects, creatinine, BUN); assay type: in vivo, C57BL/6 mice
Experimental: FIGS. 13A-13B provides data to support Retro94F showing no overt toxicity in mice. FIGS. 13A and 13B, Mice were treated with […] Retro-2.1 or vehicle control one hour prior to infection with 2×10^4 PFU MuPyV, then daily until day 4 p.i.
While we obtained good results in tissue culture, developing animal models to test the inhibitors was undertaken to allow for studies to test both the properties of the compounds in a host as well as their efficacy against viruses. […] Thus, at least two mouse infection models in which to show efficacy of the compounds against infection in a host organism is provided. Administration of Retro94F to mice to monitor for potential adverse effects of the compound was undertaken. These initial studies have shown that Retro94F is well tolerated by the mice. For these studies, C57BL/6 mice were injected intraperitoneally once daily with 250 μg of Retro94F or vehicle control in 250 μl of 0.9% saline. […] Thus, the inhibitors appear to be well tolerated by mice.

EBV = assay: EC50 against other herpesviruses: EBV; assay type: cell-based; settings: below the lowest concentration tested (FIG. 10B)
Excerpt: (§2) FIGS. 10A-10B show data to provide support for Retro94 and derivatives being effective against other herpesviruses. […] Samples were harvested at 24 hpi. Representative data shown are from independent replicates. FIG. 10B provides a table showing low nanomolar EC50 values of Retro94F against other herpesviruses.

[2] = system: range of viruses from diverse families; assay: EC50 against non-herpesviruses; assay type: cell-based; settings: FIG. 11A
Excerpt: (§3) FIG. 11A provides a table showing EC50 values of Retro94F against a range of viruses from diverse families. […] Samples were harvested at 24, 48 and 72 hpi. Data shown is from one independent replicates.

mouse polyomavirus = assay: Immune response of mice challenged with mouse polyomavirus; assay type: in vivo, B6 mice
Excerpt: (A-E) B6 mice were infected via hind footpads with 2×10^5 PFU of MuPyV. FIGS. 14A and 14B show the results of the percent of immune cell populations in the spleen (FIG. 14A) and kidney (FIG. 14B) analyzed at day 8 post infection between vehicle- or Retro94F-treated mice. […] FIGS. 14D-14E show the phenotype of MuPyV-specific CD8 T cells, analyzed at day 8 or day 30 post infection. KLRG1hi CD127lo (FIG. 14D) cells are short-lived effector cells, while KLRG1lo CD127hi (FIG. 14E) cells are memory-precursor effector cells.
Thus, the inhibitors appear to be well tolerated by mice.

MCMV = assay: Viral titers of MCMV-infected fibroblasts; assay type: cell-based, mouse; settings: 6 dpi (FIG. 12A)
Experimental: FIG. 7A is a graph showing viral titers at 15 dpi of fibroblasts infected with various strains of HCMV (MOI=0.05) and treated with DMSO or Retro94 at 2 hpi. Media was changed and fresh Retro94 was added at 6 dpi. Bright field images representing CPE of above infections shown at right. FIG. 7B show HCMV-infected ARPE-19 cells (TB40, MOI=3) at 21 dpi treated with DMSO or Retro94 ([…]). Infected cells detected by monitoring mCherry (red) expressed by TB40 virus. Scale bars: 1 mm. The table below images show number of foci detected, average area and standard error of the mean. P<0.00001. […]
as §1, with “Images of viral foci from infection of ARPE19 cells were also acquired on Eclipse Ti Inverted microscope.” left out

KSHV = assay: EC50 against other herpesviruses: KSHV; assay type: cell-based; settings: below the lowest concentration tested (FIG. 10B)
Excerpt: as §2

Zika virus = assay: Growth curve analysis of Zika virus; assay type: cell-based; settings: MOI=5; 24, 48 and 72 hpi
Excerpt: as §3

C[C@H]1CCC/C=C/[C@@H]2C[C@H](O)C[C@H]2[C@H](O)/C=C/C(=O)O1 [Brefeldin A, reference compound]
cells remaining in the monolayer (cells): very few cells in the monolayer remained

Cc1nc(-c2ccc(C3N(C)c4ccc([N+](=O)[O-])cc4C(=O)N3c3ccccc3)s2)cs1 (centres unmarked) [DABL-NM, 6-Nitro-1-methyl-2-(5-(2-methylthiazol-4-yl)thiophen-2-yl)-3-phenyl-2,3-dihydroquinazolin-4(1H)-one]
EC50 (HCMV): ~20 nM

Cc1nc(-c2ccc(C3N(C)c4ccc(F)cc4C(=O)N3c3ccccc3)s2)cs1 (centres unmarked) [Retro94F, 6-Fluoro-1-methyl-2-(5-(2-methylthiazol-4-yl)thiophen-2-yl)-3-phenyl-2,3-dihydroquinazolin-4(1H)-one]
adverse effects ([1]; 250 μg intraperitoneally once daily for 14 straight days): no apparent adverse effects
kidney function (creatinine and BUN levels) ([1]; treated mice, day 4 and day 30 p.i.): did not adversely affect kidney function
EC50 (EBV) (EBV): low naonmolar range
EC50 against other viruses [2]: high nanomolar to low micromolar range
signs of distress (mouse polyomavirus; challenge with mouse polyomavirus after treatment): no signs of distress
CD8 T cell response to the virus (mouse polyomavirus; day 8 or day 30 post infection): did not alter
levels of immune cells (spleen, kidney) (mouse polyomavirus; day 8 post infection): equivalent levels of immune cells as control treatment
inhibition of replication of the mouse equivalent of CMV in culture (MCMV): 99%
EC50 (KSHV) (KSHV): low naonmolar range
inhibition of Zika virus infection (Zika virus): approximately 90%
EC50 (HCMV): ~20 nM
IC50 (HCMV; added at 2 hpi, MOI 3, 96 hpi, read-out: IC50 (HCMV titers)): ~15 nM
